Test results: patent USRE43005E1, “Compositions and methods for their preparation from lepidium” (Naturex Inc., priority 1999, dated 2011)

Structure (SMILES) | melting point [°C]
CCCCCCCC(=O)NCc1ccccc1 [MA-3, N-benzyl octanamide] | 76 to 78
CCC(=O)/C=C/C=C/C=C/C(=O)CCCCCCCC(=O)NCc1ccccc1 [MA-9, N-benzyl-9,16-dioxo-10E,12E,14E-octadecatrienamide] | 115 to 116
